pIC50: −log10 of the molar value.
What was measured:
ASGPR = target: T1, ASGPR (Mus musculus, UniProt P24721+P34927); experiment: Binding strength between carbohydrate chain peptide and mice liver cell (competition with Eu-ASOR, time-resolved fluorescence)
T1 construct: host or cells: mouse liver cells (hepatocytes) cultured on 24-well plates
T1 sequence (P34927 1-284): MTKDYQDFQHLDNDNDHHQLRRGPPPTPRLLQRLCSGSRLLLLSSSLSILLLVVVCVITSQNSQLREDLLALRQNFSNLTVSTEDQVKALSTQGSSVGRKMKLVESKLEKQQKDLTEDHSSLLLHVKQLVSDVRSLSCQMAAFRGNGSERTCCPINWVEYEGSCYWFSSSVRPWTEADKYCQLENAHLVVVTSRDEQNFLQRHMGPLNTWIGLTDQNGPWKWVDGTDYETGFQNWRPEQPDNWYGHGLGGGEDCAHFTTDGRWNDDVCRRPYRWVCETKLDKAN
T1 sequence (P24721 1-301): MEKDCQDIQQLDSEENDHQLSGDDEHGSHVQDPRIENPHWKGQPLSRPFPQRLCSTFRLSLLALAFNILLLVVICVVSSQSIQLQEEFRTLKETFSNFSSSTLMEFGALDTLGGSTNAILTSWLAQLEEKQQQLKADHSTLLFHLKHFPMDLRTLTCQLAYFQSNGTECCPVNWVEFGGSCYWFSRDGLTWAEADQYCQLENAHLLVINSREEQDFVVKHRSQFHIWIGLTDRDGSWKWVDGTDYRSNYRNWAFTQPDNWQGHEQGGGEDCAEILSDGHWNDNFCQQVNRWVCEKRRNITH
Description: The binding strength between carbohydrate chain peptide and a mice liver cell uses Eu-asialo-orosomucoid (Eu-ASOR) as a reference substance and compares whether carbohydrate chain peptides such as DCM-Lys(ah-GalNAc)3, […] larger binding capacity to a mice liver cell than Eu-ASOR. IC50 (50% inhibitory concentration) represents the binding capacity. Smaller IC50 represents larger binding capacity. Mice liver cells are purchased from Lonza biotechnology company in State of Maryland, which are placed and cultivated on a 24-well plate in advance. Reaction takes place at each well. […] Perform oscillating culture for 1 hours. Use an ammonium-chloride-containing liver cell base culture medium to wash away substances that are not bonded to liver cells. Perform time-resolved fluorescence analysis, namely, add an enhancer (15 μM of β-naphthoyl trifluoroacetone, 50 μM of tri-n-octyl-phosphine oxide, 0.1M of potassium hydrogen phthalate, and 0.1% of Triton X-100 in 0.1M of acetic acid, pH of 3.2). The enhancer forms an Eu chelate with Eu^3+ and emits light of 615 nm when energized by 340 nm. The logarithmic value of the concentration of carbohydrate chain peptide is taken as X-axis, and the emitted fluorescence value is taken as the Y-axis. […] However, the binding between DCM-Lys(Gah-GalNAc)3 and ASGPR is 10 times as large as the binding strength of YEE and YDD.

[1] = in vivo
Description: Tyrosine-glutamyl-glutamic acid (YEE) and tyrosine-aspartyl-aspartic acid (YDD) are first proposed by Lee et al. (1983). Tyrosine-glutamyl-glutamyl-glutamic acid (YEEE) is an improved invention by Chen et al. (ROC Patent TW1240002, 2000). The binding force between double-chain galactose amino peptide proposed by Lee et al. in 1983 and a liver cell is 1000 times as large as that of single-chain galactose amino peptide. The binding force between triple-chain galactose amino peptide and a liver cell is 10^6 times as large as that of sing-chain galactose amino peptide. Our laboratory has synthesized DTPA-hexa-lactose with a single lysine derivative earlier, which has very high specific radioactivity with the In-111 label and has a very desirable effect of accumulation at the liver in animal experiments. However, our animal experiments have shown that In-111-DTPA-hexa-lactose stays at the liver very stably for at least half an hour, and it is actually not easy to observe changes of absorption of the gall bladder in the entire imaging process. Therefore, In-111-DTPA-hexa-lactose is suitable for use in remaining liver function test or measurement of remaining liver after liver resection, but is not very suitable for use as a gall bladder imaging agent.

NCCCCCC(=O)N[C@@H](CC(=O)NCCCC[C@@H](C(=O)NCCCCCCO[C@@H]1O[C@H](CO)[C@@H](O[C@@H]2O[C@H](CO)[C@H](O)[C@H](O)[C@H]2O)[C@H](O)[C@H]1O)N(CC(=O)NCCCCCCO[C@@H]1O[C@H](CO)[C@@H](O[C@@H]2O[C@H](CO)[C@H](O)[C@H](O)[C@H]2O)[C@H](O)[C@H]1O)CC(=O)NCCCCCCO[C@@H]1O[C@H](CO)[C@@H](O[C@@H]2O[C@H](CO)[C@H](O)[C@H](O)[C@H]2O)[C@H](O)[C@H]1O)C(=O)NCCCC[C@@H](C(=O)NCCCCCCO[C@@H]1O[C@H](CO)[C@@H](O[C@@H]2O[C@H](CO)[C@H](O)[C@H](O)[C@H]2O)[C@H](O)[C@H]1O)N(CC(=O)NCCCCCCO[C@@H]1O[C@H](CO)[C@@H](O[C@@H]2O[C@H](CO)[C@H](O)[C@H](O)[C@H]2O)[C@H](O)[C@H]1O)CC(=O)NCCCCCCO[C@@H]1O[C@H](CO)[C@@H](O[C@@H]2O[C@H](CO)[C@H](O)[C@H](O)[C@H]2O)[C@H](O)[C@H]1O [AHA-Asp[DCM-Lys(ahLac)3]2]
binding strength to ASGPR compared with YEE and YDD (in words) (ASGPR; compared with YEE and YDD): same binding strength as YEE and YDD

CC(=O)N[C@H]1[C@H](OCCCCCCNC(=O)CNC(=O)CN(CC(=O)NCC(=O)NCCCCCCO[C@@H]2O[C@H](CO)[C@H](O)[C@H](O)[C@H]2NC(C)=O)[C@@H](CCCCN)C(=O)NCC(=O)NCCCCCCO[C@@H]2O[C@H](CO)[C@H](O)[C@H](O)[C@H]2NC(C)=O)O[C@H](CO)[C@H](O)[C@@H]1O [DCM-Lys(GahGalNAc)3]
binding strength to ASGPR relative to YEE and YDD (ASGPR; compared with YEE and YDD): 10 times
pIC50 (ASGPR; mice liver cells, 10 nM Eu-ASOR as reference substance, 1 hour culture): 9.00

O=C(O)CN(CCN(CC(=O)O)CC(=O)O)CCN(CC(=O)O)CC(=O)NCCCCCC(=O)N[C@@H](CC(=O)NCCCC[C@@H](C(=O)NCCCCCCO[C@@H]1O[C@H](CO)[C@@H](O[C@@H]2O[C@H](CO)[C@H](O)[C@H](O)[C@H]2O)[C@H](O)[C@H]1O)N(CC(=O)NCCCCCCO[C@@H]1O[C@H](CO)[C@@H](O[C@@H]2O[C@H](CO)[C@H](O)[C@H](O)[C@H]2O)[C@H](O)[C@H]1O)CC(=O)NCCCCCCO[C@@H]1O[C@H](CO)[C@@H](O[C@@H]2O[C@H](CO)[C@H](O)[C@H](O)[C@H]2O)[C@H](O)[C@H]1O)C(=O)NCCCC[C@@H](C(=O)NCCCCCCO[C@@H]1O[C@H](CO)[C@@H](O[C@@H]2O[C@H](CO)[C@H](O)[C@H](O)[C@H]2O)[C@H](O)[C@H]1O)N(CC(=O)NCCCCCCO[C@@H]1O[C@H](CO)[C@@H](O[C@@H]2O[C@H](CO)[C@H](O)[C@H](O)[C@H]2O)[C@H](O)[C@H]1O)CC(=O)NCCCCCCO[C@@H]1O[C@H](CO)[C@@H](O[C@@H]2O[C@H](CO)[C@H](O)[C@H](O)[C@H]2O)[C@H](O)[C@H]1O [In-111-DTPA-hexa-lactose, metal not drawn]
time it stays at the liver very stably [1]: at least half an hour
